Source: patent publication US20040106658A1, “Heterocyclic fluoroalkenyl thioethers and the use thereof as pesticides(III)” (priority 2000, published 2004)
Where two headings read alike, the source gives them in different places.

What was measured:
[1] = logP by HPLC (EEC Directive 79/831 Annex V.A8, gradient method); type: physicochemical; settings: for chromatographic logP: pH 2.3; for logP (pH 2): HPLC, acetonitrile/0.1% aqueous phosphoric acid
Meloidogyne incognita = test: Meloidogyne test (gall formation on lettuce roots); type: in vivo; settings: 20 ppm active compound, after 14 days
Experimental: To produce a suitable preparation of active compound, 1 part by weight of active compound is mixed with the stated amounts of solvent and emulsifier, and the concentrate is diluted with water to the desired concentration.
Containers are filled with sand, solution of active compound, Meloidogyne incognita egg/larvae suspension and lettuce seeds. The lettuce seeds germinate and the plants develop. On the roots, galls are formed.
After the desired period of time, the nematicidal action is determined in % using gall formation as a measure. 100% means that no galls were found; 0% means that the number of galls on the treated plants corresponds to that of the untreated control.

[2] = system: Boophilus microplus (SP-resistant Parkhurst strain); test: Test with Boophilus microplus resistant (SP-resistant Parkhurst strain), injection; type: in vivo; settings: injected, checked after 7 days; for activity (no oviposition of fertile eggs): 0.16 μg active compound per animal; for kill (activity: no oviposition of fertile eggs): 0.8 μg active compound per animal
Experimental: Test With Boophilus Microplus Resistant (SP-Resistant Parkhurst Strain)
20 mg of active compound are dissolved in 1 ml of dimethyl sulphoxide, more dilute concentrations are prepared by dilution in the same solvent.
The test is carried out in 5 replications. 1 μl of the solutions is injected into the abdomen, and the animals are transferred into dishes and kept in a climatized room. After 7 days, the activity is checked by examination for oviposition of fertile eggs. Eggs whose fertility is not visible from the outside are stored in glass tubes in a controlled-environment cabinet until the larvae have hatched. An activity of 100% means that no tick has produced any fertile eggs.

[3] = system: greenhouse red spider mite (Tetranychus urticae); test: Tetranychus test (OP-resistant/dip treatment); type: in vivo; settings: active compound concentration 0.1%, after 7 days
Experimental: Tetranychus Test (OP-Resistant/Dip Treatment)
(§1) To produce a suitable preparation of active compound, 1 part by weight of active compound is mixed with the stated amounts of solvent and emulsifier, and the concentrate is diluted with emulsifier-containing water to the desired concentration.
Bean plants (Phaseolus vulgaris) which are heavily infested by all stages of the greenhouse red spider mite (Tetranychus urticae) are dipped into a preparation of active compound of the desired concentration.
After the desired period of time, the effect in % is determined. 100% means that all spider mites have been killed; 0% means that none of the spider mites have been killed.

[4] = system: Ctenocephalides felis, strain "Georgi"; test: Test with cat fleas/oral uptake; type: in vivo; settings: 100 ppm in citrated cattle blood, after 28 h
Experimental: Test With Cat Fleas/Oral Uptake
To produce a suitable formulation, a suitable solution of active compound is prepared from 20 mg of active compound and 1 ml of DMSO. 15 μl of this formulation are added to 3 ml of citrated cattle blood and stirred.
10 unfed adult fleas (Ctenocephalides felis, strain “Georgi”) are placed into a chamber (Ø3.2 cm) whose top and bottom are closed with gauze. A metal cylinder whose underside is covered with parafilm is placed onto the chamber. The cylinder contains 3 ml of blood/active compound formulation which can be taken up by the fleas through the parafilm membrane. Whereas the blood is warmed to 37° C., the temperature in the area of the flea chambers is adjusted to 25° C. Controls are mixed with the same volume of DMSO, without addition of a compound. The determinations are carried out in triplicate.
After 28 h, the mortality in % (=dead fleas) is determined.
Compounds which effect an at least 25% kill of the fleas within 28 h are judged to be effective.

[5] = system: larvae of the mustard beetle (Phaedon cochleariae); test: Phaedon larvae test (cabbage leaf dip); type: in vivo; settings: active compound concentration 0.1%, after 7 days
Experimental: as §1
After the desired period of time, the kill in % is determined. 100% means that all beetle larvae have been killed; 0% means that none of the beetle larvae have been killed.

[6] = system: peach aphid (Myzus persicae); test: Myzus test (cabbage leaf dip); type: in vivo; settings: active compound concentration 0.1%, after 6 days
Experimental: as §1
Cabbage leaves (Brassica oleracea) which are heavily infested by the peach aphid (Myzus persicae) are treated by being dipped into the preparation of active compound of the desired concentration.
After the desired period of time, the kill in % is determined. 100% means that all aphids have been killed; 0% means that none of the aphids have been killed.

Lucilia cuprina larvae = test: Blowfly larvae test (development-inhibitory action); type: in vivo; settings: 100 ppm active compound
Experimental: Blowfly Larvae Test (Development-Inhibitory Action)
20 mg of active compound are dissolved in 1 ml of dimethyl sulphoxide, more dilute concentrations are prepared by dilution with distilled water.
About 20 Lucilia cuprina larvae are introduced into a test tube which contains about 1 cm^3 of horse meat and 0.5 ml of the preparation of active compound to be tested. After 24 hours and 48 hours, the efficacy of the preparation of active compound is determined. The test tubes are transferred into a beaker whose bottom is covered with sand. After a further 2 days, the test tubes are removed and the pupae are counted.
The efficacy of the preparation of active compound is assessed by the number of flies that have hatched after 1.5 times the period of development of an untreated control. 100% means that no flies have hatched; 0% means that all flies have hatched normally.

SMILES	nematicidal action (activity, gall formation as a measure) (Meloidogyne incognita) [%]	activity (no oviposition of fertile eggs) [2] [%]	logP (pH 2) [1]	also measured
FC(F)=C(F)CCCCSc1nc(-c2ccccc2)cs1 [Example 1, 4-phenyl-2-(6,6,5-trifluorohex-5-enylthio)-1,3-thiazole]	100	100		chromatographic logP ([1]; read-out: logP (pH 2.3)): 5.21
[O-][S+](CCCCC(F)=C(F)F)c1nc(-c2ccccc2)cs1 (stereo not shown) [Example 2, 4-phenyl-2-(6,6,5-trifluorohex-5-enylsulphinyl)-1,3-thiazole]		100		chromatographic logP ([1]; read-out: logP (pH 2.3)): 3.47
O=S(=O)(CCCCC(F)=C(F)F)c1nc(-c2ccccc2)cs1 [Example 3, 4-phenyl-2-(6,6,5-trifluorohex-5-enylsulphonyl)-1,3-thiazole]		100		chromatographic logP [1]: 3.67
FC(F)=CCCCCSc1nc(-c2ccccc2)cs1 [Example 4]	100	100	5.38	kill [3]: 98%; kill (activity: no oviposition of fertile eggs) [2]: 100%; kill (mortality) [4]: 100%
FC(F)=C(F)CCCCSc1nc(Cl)c(Cl)s1 [Example 5]	98		5.33	kill [5]: 100%; kill (activity: no oviposition of fertile eggs) [2]: 100%
FC(F)=CCCCCSc1nc(Cl)c(Cl)s1 [Example 6]	100		5.53	kill [6]: 95%; kill [5]: 100%; kill [3]: 100%
FC(F)=C(F)CCCCSc1nc(-c2ccccc2)c(-c2ccccc2)o1 [Example 7]	100		5.96	
FC(F)=CCCCCSc1nc(-c2ccccc2)c(-c2ccccc2)o1 [Example 8]	100		6.14	kill [5]: 100%; kill [3]: 98%; kill (activity: no oviposition of fertile eggs) [2]: 100%; kill (efficacy: flies not hatched) (Lucilia cuprina larvae): 100%
Cc1csc(SCCCCC(F)=C(F)F)n1 [Example 9]			3.85	
FC(F)=C(F)CCCCSc1nc(Cl)c(C(F)(F)F)s1 [Example 10]			5.40	
Cc1nc(SCCCCC(F)=C(F)F)sc1C [Example 11]			4.20	
FC(F)=CCCCCSc1nc(Cl)c(C(F)(F)F)s1 [Example 12]			5.62	
